The values below come from ChEMBL document CHEMBL1143950, “Antifungal and cytotoxic activities of some N-substituted aniline derivatives bearing a hetaryl fragment” (Bioorg Med Chem, 2008).

For one assay, the system named is Candida albicans. Put plainly: Antifungal activity against Candida albicans ATCC 10231 by micro-broth dilution method. Format: functional. In general terms: Dilution methods test growth across graded concentrations, often in twofold steps.
For a further assay, the system named is Saccharomyces cerevisiae. Put plainly: Antifungal activity against Saccharomyces cerevisiae ATCC 9763 by microbroth dilution method. It counts as functional.
For a further assay, the system named is Aspergillus niger. Put plainly: Antifungal activity against Aspergillus niger ATCC 9029 by micro-broth dilution method. Format: functional.
For assay [1], the system named is Trichophyton mentagrophytes. Put plainly: Antifungal activity against Trichophyton mentagrophytes ATCC 9972 by micro-broth dilution method. It counts as functional.
The test system of a further assay is Aspergillus flavus. Put plainly: Antifungal activity against Aspergillus flavus ATCC 9170 by micro-broth dilution method. Format: functional.
In another assay the test system is Trichophyton rubrum. Put plainly: Antifungal activity against Trichophyton rubrum C113 by microbroth dilution method. Format: functional.
Another assay deals with Aspergillus fumigatus. Put plainly: Antifungal activity against Aspergillus fumigatus ATCC 26934 by micro-broth dilution method. It counts as functional.
For assay [2], the system named is Cryptococcus neoformans. Put plainly: Antifungal activity against Cryptococcus neoformans ATCC 32264 by microbroth dilution method. Format: functional.
A further assay deals with Nannizzia gypsea. Put plainly: Antifungal activity against Microsporum gypseum C115 by microbroth dilution method. It counts as functional.
The test system of another assay is Candida tropicalis. Put plainly: Antifungal activity against Candida tropicalis C131 by micro-broth dilution method. It counts as functional.
A further assay concerns NCI-H460. Put plainly: Cytotoxicity against human H460 cells by SRB assay. Format: functional, cell-based. On the technique in general: In SRB staining, fixed cells bind dye roughly in proportion to their protein.
The next assay has as its system MCF7. Put plainly: Cytotoxicity against human MCF7 cells by SRB assay. It counts as functional, cell-based.
The subject of a further assay is SF-268. Put plainly: Cytotoxicity against human SF268 cells by SRB assay. Format: functional, cell-based.
In assay [3] the test system is Cryptococcus neoformans. Put plainly: Antifungal activity against Cryptococcus neoformans IM 983036 by micro-broth dilution method. Format: functional.
Assay [4] has as its system Cryptococcus neoformans. Put plainly: Antifungal activity against Cryptococcus neoformans IM 983040 by micro-broth dilution method. Format: functional.
Assay [5] relates to Cryptococcus neoformans. Put plainly: Antifungal activity against Cryptococcus neoformans IM 042074 by micro-broth dilution method. It counts as functional.
The subject of assay [6] is Cryptococcus neoformans. Put plainly: Antifungal activity against Cryptococcus neoformans IM 031706 by micro-broth dilution method. Format: functional.
The test system of assay [7] is Cryptococcus neoformans. Put plainly: Antifungal activity against Cryptococcus neoformans IM 00319 by microbroth dilution method. Format: functional.
The subject of assay [8] is Cryptococcus neoformans. Put plainly: Antifungal activity against Cryptococcus neoformans IM 972724 by micro-broth dilution method. Format: functional.
The subject of assay [9] is Cryptococcus neoformans. Put plainly: Antifungal activity against Cryptococcus neoformans IM 031631 by micro-broth dilution method. It counts as functional.
In assay [10] the test system is Cryptococcus neoformans. Put plainly: Antifungal activity against Cryptococcus neoformans IM 961951 by micro-broth dilution method. Format: functional.
In assay [11] the test system is Cryptococcus neoformans. Put plainly: Antifungal activity against Cryptococcus neoformans IM 972751 by microbroth dilution method. It counts as functional.

Converted amounts (≈) assume the structure as drawn. Bounds are passed on as bounds.

The MIC is the lowest concentration that inhibits growth of the organism. Higher therefore signals weaker potency. Turning to `O=[N+]([O-])c1cccc(NCc2ccccn2)c1`, the MIC came to 100 µg/mL (≈ 436 µM) in the assay on Candida albicans; 100 µg/mL (≈ 436 µM) against Saccharomyces cerevisiae; 200 µg/mL (≈ 872 µM) against Aspergillus niger; 50 µg/mL (≈ 218 µM) in assay [1]; 100 µg/mL (≈ 436 µM) in the assay with Aspergillus flavus; 50 µg/mL (≈ 218 µM) with Trichophyton rubrum. Further, the MIC came to 200 µg/mL (≈ 872 µM) against Aspergillus fumigatus, 50 µg/mL (≈ 218 µM) against Cryptococcus neoformans [2], 50 µg/mL (≈ 218 µM) in the assay with Nannizzia gypsea and 100 µg/mL (≈ 436 µM) with Candida tropicalis.
With `Clc1ccc(NCc2cccs2)cc1`, the MIC against Candida albicans was found to be 62.5 µg/mL (≈ 279 µM); against Saccharomyces cerevisiae, 250 µg/mL (≈ 1120 µM); against Aspergillus niger, 250 µg/mL (≈ 1120 µM); in [1], 62.5 µg/mL (≈ 279 µM); in the assay on Aspergillus flavus it was 250 µg/mL (≈ 1120 µM); against Trichophyton rubrum, 62.5 µg/mL (≈ 279 µM). Also, the minimum inhibitory concentration (MIC) against Aspergillus fumigatus is 125 µg/mL (≈ 559 µM); with Cryptococcus neoformans [2] it was 62.5 µg/mL (≈ 279 µM); against Nannizzia gypsea, 62.5 µg/mL (≈ 279 µM); against Candida tropicalis it was 62.5 µg/mL (≈ 279 µM).
Take `Clc1ccc(NCc2ccsc2)cc1`: the minimum inhibitory concentration (MIC) with Candida albicans turned out to be 62.5 µg/mL (≈ 279 µM); against Saccharomyces cerevisiae it was 250 µg/mL (≈ 1120 µM); with Aspergillus niger it was 250 µg/mL (≈ 1120 µM); in [1] it was 62.5 µg/mL (≈ 279 µM); against Aspergillus flavus it was 250 µg/mL (≈ 1120 µM); in the assay on Trichophyton rubrum it was 62.5 µg/mL (≈ 279 µM). Also, the MIC turned out to be 125 µg/mL (≈ 559 µM) in the assay with Aspergillus fumigatus, 62.5 µg/mL (≈ 279 µM) with Cryptococcus neoformans [2], 62.5 µg/mL (≈ 279 µM) with Nannizzia gypsea and 62.5 µg/mL (≈ 279 µM) in the assay on Candida tropicalis.
In the case of `Clc1ccc(NCc2ccoc2)cc1`, the minimum inhibitory concentration (MIC) worked out at 125 µg/mL (≈ 602 µM) with Candida albicans; 125 µg/mL (≈ 602 µM) in the assay on Saccharomyces cerevisiae; 62.5 µg/mL (≈ 301 µM) against Aspergillus niger; 62.5 µg/mL (≈ 301 µM) in assay [1]; 62.5 µg/mL (≈ 301 µM) in the assay with Aspergillus flavus; 62.5 µg/mL (≈ 301 µM) against Trichophyton rubrum. For the same compound, the MIC in the assay on Aspergillus fumigatus came to 62.5 µg/mL (≈ 301 µM); against Cryptococcus neoformans [2], 62.5 µg/mL (≈ 301 µM); with Nannizzia gypsea it was 125 µg/mL (≈ 602 µM); in the assay on Candida tropicalis, 125 µg/mL (≈ 602 µM).
As to `Fc1ccc(NCc2ccco2)cc1`, the MIC is 100 µg/mL (≈ 523 µM) against Candida albicans; 125 µg/mL (≈ 654 µM) in the assay with Saccharomyces cerevisiae; 250 µg/mL (≈ 1310 µM) against Aspergillus niger; 62.5 µg/mL (≈ 327 µM) in assay [1]; greater than 250 µg/mL with Aspergillus flavus; 25 µg/mL (≈ 131 µM) in the assay on Trichophyton rubrum. Further, the MIC in the assay with Aspergillus fumigatus stood at 100 µg/mL (≈ 523 µM); in the assay on Cryptococcus neoformans [2], 100 µg/mL (≈ 523 µM); with Nannizzia gypsea it was 100 µg/mL (≈ 523 µM); in the assay on Candida tropicalis, 125 µg/mL (≈ 654 µM).
For the compound `Clc1ccc(NCc2ccco2)cc1`, the MIC with Candida albicans stood at 62.5 µg/mL (≈ 301 µM); against Saccharomyces cerevisiae it was 50 µg/mL (≈ 241 µM); with Aspergillus niger, 62.5 µg/mL (≈ 301 µM); in assay [1], 12.5 µg/mL (≈ 60.2 µM); with Aspergillus flavus it was 50 µg/mL (≈ 241 µM); against Trichophyton rubrum, 6.25 µg/mL (≈ 30.1 µM). Also, the minimal inhibitory concentration (MIC) amounted to 50 µg/mL (≈ 241 µM) in the assay with Aspergillus fumigatus, 50 µg/mL (≈ 241 µM) in the assay with Cryptococcus neoformans [2], 12.5 µg/mL (≈ 60.2 µM) with Nannizzia gypsea and 62.5 µg/mL (≈ 301 µM) against Candida tropicalis.
By IC50 is commonly meant the concentration that inhibits the measured activity by half. A higher IC50 goes with weaker potency. As for `O=[N+]([O-])c1cccc(NCc2ccncc2)c1`, the MIC in the assay with Candida albicans came to 100 µg/mL (≈ 436 µM); with Saccharomyces cerevisiae, 50 µg/mL (≈ 218 µM); against Aspergillus niger it was 100 µg/mL (≈ 436 µM); in assay [1] it was 12.5 µg/mL (≈ 54.5 µM); against Aspergillus flavus, 200 µg/mL (≈ 872 µM); against Trichophyton rubrum, 6.25 µg/mL (≈ 27.3 µM). Also, the MIC was determined as 100 µg/mL (≈ 436 µM) in the assay on Aspergillus fumigatus, 50 µg/mL (≈ 218 µM) in the assay with Cryptococcus neoformans [2], 12.5 µg/mL (≈ 54.5 µM) in the assay on Nannizzia gypsea and 100 µg/mL (≈ 436 µM) against Candida tropicalis. The IC50 in the assay with NCI-H460 is greater than 10 µg/mL; with MCF7 it was greater than 10 µg/mL; in the assay on SF-268 it was less than 10 µg/mL.
Consider `Clc1ccc(NCc2ccncc2)cc1`, for which the MIC in the assay on Candida albicans stood at 31.2 µg/mL (≈ 143 µM); against Saccharomyces cerevisiae, 62.5 µg/mL (≈ 286 µM); against Aspergillus niger, 125 µg/mL (≈ 572 µM); in [1] it was 62.5 µg/mL (≈ 286 µM); against Aspergillus flavus, 125 µg/mL (≈ 572 µM); against Trichophyton rubrum, 62.5 µg/mL (≈ 286 µM). In addition, the MIC worked out at 125 µg/mL (≈ 572 µM) against Aspergillus fumigatus, 62.5 µg/mL (≈ 286 µM) in the assay on Cryptococcus neoformans [2], 62.5 µg/mL (≈ 286 µM) with Nannizzia gypsea and 31.2 µg/mL (≈ 143 µM) against Candida tropicalis.
As to `Ic1ccc(NCc2ccncc2)cc1`, the MIC against Candida albicans was found to be 50 µg/mL (≈ 161 µM); in the assay on Cryptococcus neoformans [3], 50 µg/mL (≈ 161 µM); against Saccharomyces cerevisiae, 50 µg/mL (≈ 161 µM); against Aspergillus niger, 50 µg/mL (≈ 161 µM); in assay [1] it was 12.5 µg/mL (≈ 40.3 µM); against Cryptococcus neoformans [4], 100 µg/mL (≈ 322 µM). For the same compound, the minimal inhibitory concentration (MIC) in the assay on Aspergillus flavus was 100 µg/mL (≈ 322 µM); in the assay on Trichophyton rubrum, 6.25 µg/mL (≈ 20.2 µM); with Aspergillus fumigatus, 50 µg/mL (≈ 161 µM); with Cryptococcus neoformans [5] it was 50 µg/mL (≈ 161 µM); against Cryptococcus neoformans [6] it was 100 µg/mL (≈ 322 µM); against Cryptococcus neoformans [7], 50 µg/mL (≈ 161 µM). The MIC with Cryptococcus neoformans [2] stood at 25 µg/mL (≈ 80.6 µM); against Cryptococcus neoformans [8] it was 25 µg/mL (≈ 80.6 µM); against Nannizzia gypsea, 12.5 µg/mL (≈ 40.3 µM); in the assay with Cryptococcus neoformans [9], 50 µg/mL (≈ 161 µM); in the assay on Cryptococcus neoformans [10], 100 µg/mL (≈ 322 µM); in the assay with Candida tropicalis it was 50 µg/mL (≈ 161 µM). Moreover, the minimal inhibitory concentration (MIC) against Cryptococcus neoformans [11] worked out at 50 µg/mL (≈ 161 µM). The IC50 with NCI-H460, in the assay with MCF7 and in the assay on SF-268 was greater than 10 µg/mL in each case.
